Results as given in ChEMBL document CHEMBL1201862, “PubChem BioAssay data set” (2004).
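48-hour exposure; five concentrations; linearly interpolated endpoints. Here, GI50 denotes the concentration required for 50% inhibition of growth.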 The source made the active and inactive calls. Rule as the data show it: active = GI50 up to about 1.1 µM and inactive = higher.

Assays:
Test in all cases: growth of human tumour cells (NCI), 48 h
HCT-116 = test system: HCT-116
UACC-62 = test system: UACC-62
HCT-15 = test system: HCT-15
SNB-19 = test system: SNB-19
U-251 = test system: U-251
SK-MEL-28 = test system: SK-MEL-28
SW-620 = test system: SW-620
SNB-75 = test system: SNB-75
M14 = test system: M14
SF-295 = test system: SF-295
SK-OV-3 = test system: SK-OV-3
NCI-H226 = test system: NCI-H226
UACC-257 = test system: UACC-257
T47D = test system: T47D
TK-10 = test system: TK-10
OVCAR-3 = test system: OVCAR-3
MOLT-4 = test system: MOLT-4
KM12 = test system: KM12
UO-31 = test system: UO-31
HT-29 = test system: HT-29
MDA-MB-231 = test system: MDA-MB-231
CCRF-CEM = test system: CCRF-CEM
SK-MEL-5 = test system: SK-MEL-5
IGROV-1 = test system: IGROV-1
MDA-N = test system: MDA-N
ACHN = test system: ACHN
OVCAR-5 = test system: OVCAR-5
OVCAR-8 = test system: OVCAR-8
DU-145 = test system: DU-145
A549 = test system: A549
HL-60 = test system: HL-60
NCI-H23 = test system: NCI-H23
COLO 205 = test system: COLO 205
PC-3 = test system: PC-3
SK-MEL-2 = test system: SK-MEL-2
SF-268 = test system: SF-268
CAKI-1 = test system: CAKI-1
MCF7 = test system: MCF7
NCI/ADR-RES = test system: NCI/ADR-RES
A498 = test system: A498
786-0 = test system: 786-0
HCC 2998 = test system: HCC 2998
BT-549 = test system: BT-549
NCI-H522 = test system: NCI-H522
NCI-H460 = test system: NCI-H460
SN12C = test system: SN12C
SF-539 = test system: SF-539
SR = test system: SR
K562 = test system: K562
HOP-62 = test system: HOP-62
Malme-3M = test system: Malme-3M
MDA-MB-435 = test system: MDA-MB-435
Hs-578T = test system: Hs-578T
EKVX = test system: EKVX
RPMI-8226 = test system: RPMI-8226
OVCAR-4 = test system: OVCAR-4
RXF 393 = test system: RXF 393
HOP-92 = test system: HOP-92
LOX IMVI = test system: LOX IMVI

CN(C)CCNC(=O)c1cccc(N(C)C(=O)c2ccccc2)c1[N+](=O)[O-]
GI50 (HCT-116): > 100 µM (inactive) | GI50 (UACC-62): > 100 µM (inactive) | GI50 (HCT-15): > 100 µM | GI50 (SNB-19): > 100 µM (inactive) | GI50 (U-251): > 100 µM (inactive) | GI50 (SK-MEL-28): > 100 µM (inactive) | GI50 (SW-620): > 100 µM (inactive) | GI50 (SNB-75): 53.6 µM (inactive) | GI50 (M14): > 100 µM (inactive) | GI50 (SF-295): > 100 µM (inactive) | GI50 (SK-OV-3): > 100 µM (inactive) | GI50 (NCI-H226): > 100 µM (inactive) | GI50 (UACC-257): > 10 µM (inactive) | GI50 (T47D): > 100 µM (inactive) | GI50 (TK-10): > 100 µM (inactive) | GI50 (OVCAR-3): > 100 µM (inactive) | GI50 (MOLT-4): > 100 µM (inactive) | GI50 (KM12): > 100 µM (inactive) | GI50 (UO-31): > 100 µM (inactive) | GI50 (HT-29): > 100 µM (inactive) | GI50 (MDA-MB-231): > 100 µM (inactive) | GI50 (CCRF-CEM): > 100 µM (inactive) | GI50 (SK-MEL-5): > 100 µM (inactive) | GI50 (IGROV-1): > 100 µM (inactive) | GI50 (MDA-N): > 100 µM (inactive) | GI50 (ACHN): > 100 µM (inactive) | GI50 (OVCAR-5): > 100 µM (inactive) | GI50 (OVCAR-8): > 100 µM (inactive) | GI50 (DU-145): > 100 µM (inactive) | GI50 (A549): > 100 µM (inactive) | GI50 (HL-60): > 100 µM (inactive) | GI50 (NCI-H23): > 100 µM (inactive) | GI50 (COLO 205): > 10 µM (inactive) | GI50 (PC-3): > 100 µM (inactive) | GI50 (SK-MEL-2): > 100 µM (inactive) | GI50 (SF-268): > 100 µM (inactive) | GI50 (CAKI-1): > 100 µM (inactive) | GI50 (MCF7): > 100 µM (inactive) | GI50 (NCI/ADR-RES): > 100 µM (inactive) | GI50 (A498): > 100 µM (inactive) | GI50 (786-0): > 100 µM (inactive) | GI50 (HCC 2998): > 100 µM (inactive) | GI50 (BT-549): > 100 µM (inactive) | GI50 (NCI-H522): > 100 µM (inactive) | GI50 (NCI-H460): > 100 µM (inactive) | GI50 (SN12C): > 10 µM (inactive) | GI50 (SF-539): > 100 µM (inactive) | GI50 (SR): > 100 µM (inactive) | GI50 (K562): > 100 µM (inactive) | GI50 (HOP-62): > 100 µM (inactive) | GI50 (Malme-3M): > 100 µM (inactive) | GI50 (MDA-MB-435): > 100 µM (inactive) | GI50 (Hs-578T): > 100 µM (inactive)

CC(C)(C)n1c(=O)n(C(=O)C(Cl)(Cl)Cl)n(C(=O)C(Cl)(Cl)Cl)c1=O
GI50 (HCT-116): > 100 µM (inactive) | GI50 (UACC-62): > 100 µM (inactive) | GI50 (HCT-15): > 100 µM | GI50 (SNB-19): > 100 µM (inactive) | GI50 (U-251): > 100 µM (inactive) | GI50 (SK-MEL-28): > 100 µM (inactive) | GI50 (SW-620): > 100 µM (inactive) | GI50 (M14): > 100 µM (inactive) | GI50 (SF-295): > 100 µM (inactive) | GI50 (SK-OV-3): > 100 µM (inactive) | GI50 (NCI-H226): > 100 µM (inactive) | GI50 (UACC-257): > 100 µM (inactive) | GI50 (T47D): > 100 µM (inactive) | GI50 (TK-10): > 100 µM (inactive) | GI50 (OVCAR-3): > 100 µM (inactive) | GI50 (MOLT-4): > 100 µM (inactive) | GI50 (KM12): > 100 µM (inactive) | GI50 (UO-31): > 100 µM (inactive) | GI50 (EKVX): > 100 µM (inactive) | GI50 (HT-29): > 100 µM (inactive) | GI50 (RPMI-8226): > 100 µM (inactive) | GI50 (MDA-MB-231): > 100 µM (inactive) | GI50 (OVCAR-4): > 100 µM (inactive) | GI50 (CCRF-CEM): > 100 µM (inactive) | GI50 (RXF 393): > 100 µM (inactive) | GI50 (SK-MEL-5): > 100 µM (inactive) | GI50 (IGROV-1): > 100 µM (inactive) | GI50 (MDA-N): > 100 µM (inactive) | GI50 (ACHN): > 100 µM (inactive) | GI50 (OVCAR-5): > 100 µM (inactive) | GI50 (OVCAR-8): > 100 µM (inactive) | GI50 (DU-145): > 100 µM (inactive) | GI50 (A549): > 100 µM (inactive) | GI50 (HL-60): > 100 µM (inactive) | GI50 (NCI-H23): > 100 µM (inactive) | GI50 (COLO 205): > 100 µM (inactive) | GI50 (HOP-92): > 100 µM (inactive) | GI50 (LOX IMVI): > 100 µM (inactive) | GI50 (PC-3): > 100 µM (inactive) | GI50 (SK-MEL-2): > 100 µM (inactive) | GI50 (SF-268): > 100 µM (inactive) | GI50 (CAKI-1): > 100 µM (inactive) | GI50 (MCF7): > 100 µM (inactive) | GI50 (NCI/ADR-RES): > 100 µM (inactive) | GI50 (786-0): > 100 µM (inactive) | GI50 (HCC 2998): > 100 µM (inactive) | GI50 (BT-549): > 100 µM (inactive) | GI50 (NCI-H522): > 100 µM (inactive) | GI50 (NCI-H460): > 100 µM (inactive) | GI50 (SN12C): > 100 µM (inactive) | GI50 (SF-539): > 100 µM (inactive) | GI50 (SR): > 100 µM (inactive) | GI50 (K562): > 100 µM (inactive) | GI50 (HOP-62): > 100 µM (inactive) | GI50 (Malme-3M): > 100 µM (inactive) | GI50 (MDA-MB-435): > 100 µM (inactive) | GI50 (Hs-578T): > 100 µM (inactive)
